Assay results reported in patent US8138168B1 (Takeda Pharmaceutical Company Limited, priority 2007, dated 2012).
Blank lines part the entries; values can stand above or below the compound they belong to.

Molecular target: T1, Recombinant human renin (Homo sapiens, UniProt P00797)
T1 construct: isolate the active form (residues 67-406); made in house; host or cells: FreeStyle 293-F cells (transient expression of pcDNA3.1(+)/hREN)
T1 sequence (P00797 67-406): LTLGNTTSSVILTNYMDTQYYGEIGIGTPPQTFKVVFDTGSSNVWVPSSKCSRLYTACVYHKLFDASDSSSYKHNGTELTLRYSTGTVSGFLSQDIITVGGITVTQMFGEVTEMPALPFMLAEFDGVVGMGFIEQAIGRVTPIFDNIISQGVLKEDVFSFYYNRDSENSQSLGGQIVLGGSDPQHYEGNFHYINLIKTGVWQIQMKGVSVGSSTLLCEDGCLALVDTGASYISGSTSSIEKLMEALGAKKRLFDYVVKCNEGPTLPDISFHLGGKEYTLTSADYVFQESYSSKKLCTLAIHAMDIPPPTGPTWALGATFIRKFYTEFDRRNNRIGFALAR
Experiment: In vitro enzymatic activity assay of renin inhibitors (fluorogenic peptide substrate)
Format: biochemical
Conditions: read-out: IC50 of Exemplified Compounds Against Renin
Method in brief: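 Recombinant human renin (3 nM final) pre-incubated 10 min at 37 °C with compounds in pH 7.4 Hepes/EDTA/DTT/0.1 mg/mL BSA/Brij35 buffer (optionally plus 2% BSA), 5% DMSO final; fluorogenic QXL520/HiLyteFluo488 peptide substrate added.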

Structure (SMILES): COCCCn1c([C@@H]2CCCN(C(=O)C[C@H](N)Cc3ccc(-c4ccncc4Cl)cc3)C2)nc2ccccc21 [Compound 131, (R)-3-amino-4-(4-(3-chloropyridin-4-yl)phenyl)-1-((R)-3-(1-(3-methoxypropyl)-1H-benzo[d]imidazol-2-yl)piperidin-1-yl)butan-1-one]
IC50: < 100 nM

Structure (SMILES): COCCCn1c([C@@H]2CCCN(C(=O)C[C@H](N)Cc3ccc(-c4ccc(C(=O)N5CCNC(=O)C5)cc4)cc3)C2)nc2ccccc21 [Compound 189, 4-(4′-((R)-2-amino-4-((R)-3-(1-(3-methoxypropyl)-1H-benzo[d]imidazol-2-yl)piperidin-1-yl)-4-oxobutyl)biphenylcarbonyl)piperazin-2-one]
IC50: < 100 nM

Structure (SMILES): COCCCn1c([C@@H]2CCCN(C(=O)C[C@H](N)Cc3ccc(-c4ccncc4OC)cc3)C2)nc2ccccc21 [Compound 144, (R)-3-amino-1-((R)-3-(1-(3-methoxypropyl)-1H-benzo[d]imidazol-2-yl)piperidin-1-yl)-4-(4-(3-methoxypyridin-4-yl)phenyl)butan-1-one]
IC50: < 100 nM

Structure (SMILES): COCCCn1c([C@@H]2CCCN(C(=O)C[C@H](N)Cc3ccc(-c4ccc(OC)nc4OC)cc3)C2)nc2ccccc21 [Compound 132, (R)-3-amino-4-(4-(2,6-dimethoxypyridin-3-yl)phenyl)-1-((R)-3-(1-(3-methoxypropyl)-1H-benzo[d]imidazol-2-yl)piperidin-1-yl)butan-1-one]
IC50: < 100 nM

Structure (SMILES): COCCCn1c([C@@H]2CCCN(C(=O)C[C@H](N)Cc3ccc(-c4ccc(C(=O)NCCO)c(F)c4)cc3)C2)nc2ccccc21 [Compound 190, 4′-((R)-2-amino-4-((R)-3-(1-(3-methoxypropyl)-1H-benzo[d]imidazol-2-yl)piperidin-1-yl)-4-oxobutyl)-3-fluoro-N-(2-hydroxyethyl)biphenyl-4-carboxamide]
IC50: < 100 nM

Structure (SMILES): CC(C)C[C@H](N)C(=O)N1CCCC(c2nc3ccccc3[nH]2)C1 (stereo partly drawn) [Compound 46, (2S)-1-(3-(1H-benzo[d]imidazol-2-yl)piperidin-1-yl)-2-amino-4-methylpentan-1-one]
IC50: > 1000 nM

Structure (SMILES): COCCCn1c([C@@H]2CCCN(C(=O)C[C@H](N)Cc3ccc(-c4ccc(C(=O)N[C@@H](C)CO)cc4)cc3)C2)nc2ccccc21 [Compound 187, 4′-((R)-2-amino-4-((R)-3-(1-(3-methoxypropyl)-1H-benzo[d]imidazol-2-yl)piperidin-1-yl)-4-oxobutyl)-N-((S)-1-hydroxypropan-2-yl)biphenyl-4-carboxamide]
IC50: < 100 nM

Structure (SMILES): O=C(Nc1ccc2c(c1)OCCO2)N1CCCC(c2nc3ccccc3[nH]2)C1 (centres unmarked) [Compound 15, 3-(1H-benzo[d]imidazol-2-yl)-N-(2,3-dihydrobenzo[b][1,4]dioxin-6-yl)piperidine-1-carboxamide]
IC50: > 1000 nM

Structure (SMILES): COCCCn1c([C@@H]2CCCN(C(=O)C[C@H](N)Cc3ccc(-c4ccc[nH]4)cc3)C2)nc2ccccc21 [Compound 153, (R)-4-(4-(1H-pyrrol-2-yl)phenyl)-3-amino-1-((R)-3-(1-(3-methoxypropyl)-1H-benzo[d]imidazol-2-yl)piperidin-1-yl)butan-1-one]
IC50: < 100 nM

Structure (SMILES): COCCCn1c([C@@H]2CCCN(C(=O)C[C@H](N)Cc3ccc(N4CCOCC4=O)cc3)C2)nc2ccccc21 [Compound 213]
IC50: 100 to 1000 nM

Structure (SMILES): COCCCn1c([C@@H]2CCCN(C(=O)C[C@H](N)Cc3ccc(-c4ccc(C(=O)NCCOC)cc4)cc3)C2)nc2ccccc21 [Compound 177, 4′-((R)-2-amino-4-((R)-3-(1-(3-methoxypropyl)-1H-benzo[d]imidazol-2-yl)piperidin-1-yl)-4-oxobutyl)-N-(2-methoxyethyl)biphenyl-4-carboxamide]
IC50: < 100 nM

Second part, the compound after the results:

IC50: < 100 nM
Structure (SMILES): CC(=O)NCCn1c([C@@H]2CCCN(C(=O)C[C@H](N)Cc3ccc(-c4ccc(N)nc4)cc3)C2)nc2c(Cl)cccc21 [Compound 479, N-(2-(2-((R)-1-((R)-3-amino-4-(4-(6-aminopyridin-3-yl)phenyl)butanoyl)piperidin-3-yl)-4-chloro-1H-benzo[d]imidazol-1-yl)ethyl)acetamide]

IC50: 100 to 1000 nM
Structure (SMILES): COCCCn1c([C@@H]2CCCN(C(=O)[C@@H]3CN(S(=O)(=O)c4ccc(Cl)cc4Cl)C[C@H]3N)C2)nc2ccccc21 [Compound 350, ((3R,4S)-4-amino-1-(2,4-dichlorophenylsulfonyl)pyrrolidin-3-yl)((R)-3-(1-(3-methoxypropyl)-1H-benzo[d]imidazol-2-yl)piperidin-1-yl)methanone]

IC50: < 100 nM
Structure (SMILES): COCCCn1c([C@@H]2CCCN(C(=O)C[C@H](N)Cc3ccc(-c4ccc5c(c4)SCC(=O)N5)cc3)C2)nc2c(C)cccc21 [Compound 496, 7-(4-((R)-2-amino-4-((R)-3-(1-(3-methoxypropyl)-4-methyl-1H-benzo[d]imidazol-2-yl)piperidin-1-yl)-4-oxobutyl)phenyl)-2H-benzo[b][1,4]thiazin-3(4H)-one]

IC50: < 100 nM
Structure (SMILES): COCCCn1c([C@@H]2CCCN(C(=O)C[C@H](N)Cc3ccc(-c4ccc(N)nc4)cc3)C2)nc2c(F)cccc21 [Compound 452, (R)-3-amino-4-(4-(6-aminopyridin-3-yl)phenyl)-1-((R)-3-(4-fluoro-1-(3-methoxypropyl)-1H-benzo[d]imidazol-2-yl)piperidin-1-yl)butan-1-one]

IC50: > 1000 nM
Structure (SMILES): COCCCn1c([C@@H]2CCCN(C(=O)C[C@H](N)CNC(=O)N3CCCC3)C2)nc2ccccc21 [Compound 334, N-((S)-2-amino-4-((R)-3-(1-(3-methoxypropyl)-1H-benzo[d]imidazol-2-yl)piperidin-1-yl)-4-oxobutyl)pyrrolidine-1-carboxamide]

IC50: > 1000 nM
Structure (SMILES): COCCCn1c([C@@H]2CCCN(C(=O)[C@@H]3CN(S(=O)(=O)c4cccc(-c5noc(C)n5)c4)C[C@H]3N)C2)nc2ccccc21 [Compound 409, ((3R,4S)-4-amino-1-(3-(5-methyl-1,2,4-oxadiazol-3-yl)phenylsulfonyl)pyrrolidin-3-yl)((R)-3-(1-(3-methoxypropyl)-1H-benzo[d]imidazol-2-yl)piperidin-1-yl)methanone]

IC50: 100 to 1000 nM
Structure (SMILES): COCCCn1c([C@@H]2CCCN(C(=O)C[C@H](N)Cc3ccc4ccccc4c3)C2)nc2c1CCCC2 [Compound 241, (R)-3-amino-1((R)-3-(1-(3-methoxypropyl)-4,5,6,7-tetrahydro-1H-benzo[d]imidazol-2-yl)piperidin-1-yl)-4-(naphthalen-2-yl)butan-1-one]

IC50: > 1000 nM
Structure (SMILES): COCCCn1c([C@@H]2CCCN(C(=O)[C@@H]3CN(S(=O)(=O)c4cc(C)ccc4C#N)C[C@H]3N)C2)nc2ccccc21 [Compound 403, 2-((3S,4R)-3-amino-4-((R)-3-(1-(3-methoxypropyl)-1H-benzo[d]imidazol-2-yl)piperidine-1-carbonyl)pyrrolidin-1-ylsulfonyl)-4-methylbenzonitrile]

IC50: > 1000 nM
Structure (SMILES): COCCCn1c([C@@H]2CCCN(C(=O)[C@@H]3CN(S(=O)(=O)c4cc(OC)ccc4OC)C[C@H]3N)C2)nc2ccccc21 [Compound 413, ((3R,4S)-4-amino-1-(2,5-dimethoxyphenylsulfonyl)pyrrolidin-3-yl)((R)-3-(1-(3-methoxypropyl)-1H-benzo[d]imidazol-2-yl)piperidin-1-yl)methanone]

IC50: 100 to 1000 nM
Structure (SMILES): Nc1ncc(-c2ccc(C[C@@H](N)CC(=O)N3CCC[C@@H](c4nc5ccccc5n4CCF)C3)cc2)cn1 [Compound 509, (R)-3-amino-4-(4-(2-aminopyrimidin-5-yl)phenyl)-1-((R)-3-(1-(2-fluoroethyl)-1H-benzo[d]imidazol-2-yl)piperidin-1-yl)butan-1-one]

IC50: 100 to 1000 nM
Structure (SMILES): CC(=O)NCCn1c([C@@H]2CCCN(C(=O)C[C@H](N)Cc3ccc(-c4ccc(O)nc4)cc3)C2)nc2ccccc21 [Compound 445, N-(2-(2-((R)-1-((R)-3-amino-4-(4-(6-hydroxypyridin-3-yl)phenyl)butanoyl)piperidin-3-yl)-1H-benzo[d]imidazol-1-yl)ethyl)acetamide]

IC50: < 100 nM
Structure (SMILES): CCCn1c(=O)n(-c2ccc(C[C@@H](N)CC(=O)N3CCC[C@@H](c4nc5ccccc5n4CCCOC)C3)cc2)c2ccccc21 [Compound 221, 1-(4-((R)-2-amino-4-((R)-3-(1-(3-methoxypropyl)-1H-benzo[d]imidazol-2-yl)piperidin-1-yl)-4-oxobutyl)phenyl)-3-propyl-1H-benzo[d]imidazol-2(3H)-one]

IC50: 100 to 1000 nM
Structure (SMILES): COCCCn1c([C@@H]2CCCN(C(=O)[C@@H]3CN(S(=O)(=O)c4c(Cl)cccc4Cl)C[C@H]3N)C2)nc2ccccc21 [Compound 347, ((3R,4S)-4-amino-1-(2,6-dichlorophenylsulfonyl)pyrrolidin-3-yl)((R)-3-(1-(3-methoxypropyl)-1H-benzo[d]imidazol-2-yl)piperidin-1-yl)methanone]

IC50: < 100 nM
Structure (SMILES): COCCCn1c([C@@H]2CCCN(C(=O)C[C@H](N)Cc3ccc(-n4c(=O)n(CCOC)c5ccccc54)cc3)C2)nc2ccccc21 [Compound 214, 1-(4-((R)-2-amino-4-((R)-3-(1-(3-methoxypropyl)-1H-benzo[d]imidazol-2-yl)piperidin-1-yl)-4-oxobutyl)phenyl)-3-(2-methoxyethyl)-1H-benzo[d]imidazol-2(3H)-one]

IC50: 100 to 1000 nM
Structure (SMILES): COCCCn1c([C@@H]2CCCN(C(=O)[C@@H]3CN(S(=O)(=O)c4ccc(OC)cc4[N+](=O)[O-])C[C@H]3N)C2)nc2ccccc21 [Compound 381, ((3R,4S)-4-amino-1-(4-methoxy-2-nitrophenylsulfonyl)pyrrolidin-3-yl)((R)-3-(1-(3-methoxypropyl)-1H-benzo[d]imidazol-2-yl)piperidin-1-yl)methanone]
